As a reminder, the Ki is the equilibrium dissociation constant of an inhibitor or competing ligand from its target. Higher therefore signals a looser hold on the target.

We go through 18 compounds from patent US8420667B2, “Isoquinolinone derivatives as NK3 antagonists” (H. Lundbeck A/S, priority 2008, dated 2013).

Assay [1] has as its target T1, NK3 receptor (Homo sapiens, UniProt P29371).
T1 sequence (P29371 1-465): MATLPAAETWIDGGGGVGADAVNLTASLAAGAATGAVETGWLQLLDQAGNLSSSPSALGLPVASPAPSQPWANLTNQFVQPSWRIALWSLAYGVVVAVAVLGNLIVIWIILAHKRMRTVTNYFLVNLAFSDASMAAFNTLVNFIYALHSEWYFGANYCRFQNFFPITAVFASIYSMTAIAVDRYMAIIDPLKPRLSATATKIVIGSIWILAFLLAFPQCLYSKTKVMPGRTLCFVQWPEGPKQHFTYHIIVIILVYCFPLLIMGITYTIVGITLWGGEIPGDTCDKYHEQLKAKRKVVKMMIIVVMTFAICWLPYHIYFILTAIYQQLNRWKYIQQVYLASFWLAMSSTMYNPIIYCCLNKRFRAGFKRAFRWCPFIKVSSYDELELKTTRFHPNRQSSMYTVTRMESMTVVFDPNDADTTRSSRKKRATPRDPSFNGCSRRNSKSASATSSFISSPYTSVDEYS
The assay can be described thus: NK3 receptor affinity (Ki). The assay is classed as binding.

The target in assay [2] is T1, NK3 receptor. The settings on record: clinical trials; cited from earlier work.

Take `CC[C@H](NC(=O)c1c(C)n(-c2ccccc2)c(=O)c2c(Cl)cccc12)c1ccc(Cl)cc1` [Example 1as, 8-Chloro-3-methyl-1-oxo-2-phenyl-1,2-dihydro-isoquinoline-4-carboxylic acid [(S)-1-(4-chloro-phenyl)-propyl]-amide]: the affinity in assay [1] corresponds to a Ki of 250 nM.

In turn, `CC[C@H](NC(=O)c1c(C)n(-c2ccccc2)c(=O)c2c(Cl)cccc12)c1ccc(F)cc1` [Example 1at, 8-Chloro-3-methyl-1-oxo-2-phenyl-1,2-dihydro-isoquinoline-4-carboxylic acid [(S)-1-(4-fluoro-phenyl)-propyl]-amide] displayed a Ki in assay [1] of 180 nM.

`CC[C@H](NC(=O)c1c(C)n(-c2ccccc2)c(=O)c2c(Cl)cccc12)c1ccccc1F` [Example 1au, 8-Chloro-3-methyl-1-oxo-2-phenyl-1,2-dihydro-isoquinoline-4-carboxylic acid [(S)-1-(2-fluoro-phenyl)-propyl]-amide] registered a Ki in assay [1] of 270 nM.

Consider `CC[C@H](NC(=O)c1c(C)n(-c2ccccc2)c(=O)c2c(Cl)cccc12)c1cccc(Cl)c1` [Example 1av, 8-Chloro-3-methyl-1-oxo-2-phenyl-1,2-dihydro-isoquinoline-4-carboxylic acid [(S)-1-(3-chloro-phenyl)-propyl]-amide], for which the affinity in assay [1], expressed as Ki, was 39 nM.

For `Cc1c(C(=O)N[C@H](c2cccc(Cl)c2)C2CC2)c2cccc(Cl)c2c(=O)n1-c1ccccc1` [Example 1aw, 8-Chloro-3-methyl-1-oxo-2-phenyl-1,2-dihydro-isoquinoline-4-carboxylic acid [(S)-(3-chloro-phenyl)-cyclopropyl-methyl]-amide], the Ki in assay [1] was 59 nM.

Regarding `Cc1c(C(=O)N[C@H](c2ccc(Cl)cc2)C2CC2)c2cccc(Cl)c2c(=O)n1-c1ccccc1` [Example 1ax, 8-Chloro-3-methyl-1-oxo-2-phenyl-1,2-dihydro-isoquinoline-4-carboxylic acid [(S)-(4-chloro-phenyl)-cyclopropyl-methyl]-amide], the Ki in assay [1] is 150 nM.

`CC[C@H](NC(=O)c1c(C)n(-c2ccccc2)c(=O)c2c(Cl)cccc12)c1cccc(F)c1` [Example 1ay, 8-Chloro-3-methyl-1-oxo-2-phenyl-1,2-dihydro-isoquinoline-4-carboxylic acid [(S)-1-(3-fluoro-phenyl)-propyl]-amide]: the affinity in assay [1], expressed as Ki, was 47 nM.

`Cc1c(C(=O)N[C@H](c2ccc(F)cc2)C2CC2)c2cccc(Cl)c2c(=O)n1-c1ccccc1` [Example 1ba, 8-Chloro-3-methyl-1-oxo-2-phenyl-1,2-dihydro-isoquinoline-4-carboxylic acid [(S)-cyclopropyl-(4-fluoro-phenyl)-methyl]-amide]: in assay [1], the affinity, expressed as Ki, was 55 nM.

In assay [1], `CC[C@H](NC(=O)c1c(C)n(-c2ccccc2)c(=O)c2c(Cl)cccc12)c1ccccc1Cl` [Example 1bb, 8-Chloro-3-methyl-1-oxo-2-phenyl-1,2-dihydro-isoquinoline-4-carboxylic acid [(S)-1-(2-chloro-phenyl)-propyl]-amide] returned a Ki of 240 nM.

As for `Cc1c(C(=O)N[C@H](c2ccccc2Cl)C2CC2)c2cccc(Cl)c2c(=O)n1-c1ccccc1` [Example 1bd, 8-Chloro-3-methyl-1-oxo-2-phenyl-1,2-dihydro-isoquinoline-4-carboxylic acid [(S)-(2-chloro-phenyl)-cyclopropyl-methyl]-amide], the Ki in assay [1] was 49 nM.

`Cc1c(C(=O)N[C@H](c2ccccc2F)C2CC2)c2cccc(Cl)c2c(=O)n1-c1ccccc1` [Example 1be, 8-Chloro-3-methyl-1-oxo-2-phenyl-1,2-dihydro-isoquinoline-4-carboxylic acid [(S)-cyclopropyl-(2-fluoro-phenyl)-methyl]-amide]: in assay [1], the Ki came out at 45 nM.

As for `Cc1c(C(=O)N[C@H](c2cccc(F)c2)C2CCC2)c2cccc(Cl)c2c(=O)n1-c1ccccc1` [Example 1bh, 8-Chloro-3-methyl-1-oxo-2-phenyl-1,2-dihydro-isoquinoline-4-carboxylic acid [(S)-cyclobutyl-(3-fluoro-phenyl)-methyl]-amide], the inhibition constant (Ki) in assay [1] worked out at 31 nM.

With `Cc1c(C(=O)N[C@H](c2ccc(F)cc2)C2CCC2)c2cccc(Cl)c2c(=O)n1-c1ccccc1` [Example 1bi, 8-Chloro-3-methyl-1-oxo-2-phenyl-1,2-dihydro-isoquinoline-4-carboxylic acid [(S)-cyclobutyl-(4-fluoro-phenyl)-methyl]-amide], the Ki in assay [1] came to 31 nM.

As for `Cc1c(C(=O)N[C@@H](c2cccc(F)c2)C2CC2)c2cccc(Cl)c2c(=O)n1-c1ccccc1` [Example 1bl, 8-Chloro-3-methyl-1-oxo-2-phenyl-1,2-dihydro-isoquinoline-4-carboxylic acid [(R)-cyclopropyl-(3-fluoro-phenyl)-methyl]-amide], in assay [1], the inhibition constant (Ki) stood at 810 nM. Against the preceding compound, the Ki is about 26-fold higher.

Take `Cc1c(C(=O)NC(c2ccccc2F)C2CCC2)c2cccc(Cl)c2c(=O)n1-c1ccccc1` (stereo not drawn) [Example 1bo, 8-Chloro-3-methyl-1-oxo-2-phenyl-1,2-dihydro-isoquinoline-4-carboxylic acid [cyclobutyl-(2-fluoro-phenyl)-methyl]-amide]: in assay [1], the Ki was found to be 150 nM. This Ki lies about 5.4-fold lower than the previous one.

For `Cc1c(C(=O)N[C@H](c2cccc(F)c2)C2CC2)c2cccc(F)c2c(=O)n1-c1ccccc1` [Example 7e, 8-Fluoro-3-methyl-1-oxo-2-phenyl-1,2-dihydro-isoquinoline-4-carboxylic acid [(S)-cyclopropyl-(3-fluoro-phenyl)-methyl]-amide], affinity in assay [1] was put at a Ki of 15 nM.

Take `Cc1c(C(=O)N[C@H](c2cccc(F)c2)C2CCC2)c2cccc(F)c2c(=O)n1-c1ccccc1` [Example 7h, 8-Fluoro-3-methyl-1-oxo-2-phenyl-1,2-dihydro-isoquinoline-4-carboxylic acid [(S)-cyclobutyl-(3-fluoro-phenyl)-methyl]-amide]: the Ki in assay [1] came to 10 nM.

Turning to `CC[C@H](NC(=O)c1c(O)c(-c2ccccc2)nc2ccccc12)c1ccccc1` [talnetant], in assay [2], the “effect on cognitive behaviour of schizophrenics” value is recorded as “ameliorate the cognitive behaviour of schizophrenics”.
